# From ChEMBL document CHEMBL5338740, “Atropo/Tropo Flexibility: A Tool for Design and Synthesis of Self-Adaptable Inhibitors of Carbonic Anhydrases and Their Antiproliferative Effect” (J Med Chem, 2023)
# Calls of active or inactive are those of the source. The rule behind the calls is not given here.
# Columns and labels:
# Carbonic anhydrase 2 = Carbonic anhydrase 2 (Homo sapiens, UniProt P00918); experiment: Inhibition of recombinant human […] assessed as inhibition constant preincubated for 15 mins by phenol red dye based stopped-flow CO2 hydration assay
# Carbonic anhydrase 1 = Carbonic anhydrase 1 (Homo sapiens, UniProt P00915); experiment: Inhibition of recombinant human CA1 assessed as inhibition constant preincubated for 15 mins by phenol red dye based stopped-flow CO2 hydration assay
# Chain of Carbonic anhydrase 1 (P00915 whole entry): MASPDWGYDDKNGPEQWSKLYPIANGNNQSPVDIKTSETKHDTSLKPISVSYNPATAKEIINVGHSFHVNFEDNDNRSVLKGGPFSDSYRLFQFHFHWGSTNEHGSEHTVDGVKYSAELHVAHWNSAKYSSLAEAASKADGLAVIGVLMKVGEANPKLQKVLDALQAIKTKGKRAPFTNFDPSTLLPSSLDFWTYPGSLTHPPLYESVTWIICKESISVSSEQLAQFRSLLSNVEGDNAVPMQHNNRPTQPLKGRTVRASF
# Carbonic anhydrase 9 = Carbonic anhydrase 9 (Homo sapiens, UniProt Q16790); experiment: Inhibition of recombinant human […] assessed as inhibition constant preincubated for 15 mins by phenol red dye based stopped-flow CO2 hydration assay
# Carbonic anhydrase 12 = Carbonic anhydrase 12 (Homo sapiens, UniProt O43570); experiment: Inhibition of recombinant human CA XII (30 to 291 residues) expressed in escherichia coli BL21 assessed as inhibition constant preincubated for 15 mins by phenol red dye based stopped-flow CO2 hydration assay
# Chain of Carbonic anhydrase 12 (O43570 whole entry, the tested form may be a part): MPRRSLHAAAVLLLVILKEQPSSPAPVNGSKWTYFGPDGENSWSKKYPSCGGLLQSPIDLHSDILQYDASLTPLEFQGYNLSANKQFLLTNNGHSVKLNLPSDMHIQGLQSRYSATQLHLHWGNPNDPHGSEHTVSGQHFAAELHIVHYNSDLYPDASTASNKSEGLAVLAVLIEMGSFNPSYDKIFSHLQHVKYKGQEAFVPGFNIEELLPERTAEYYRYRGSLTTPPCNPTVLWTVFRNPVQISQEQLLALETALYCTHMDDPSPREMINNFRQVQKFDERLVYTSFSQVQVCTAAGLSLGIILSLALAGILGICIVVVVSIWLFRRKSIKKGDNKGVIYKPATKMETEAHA
# A549 = experiment: Cytotoxicity against human A549 cells assessed as inhibition of cell viability for 48 hrs by MTT assay; type: functional, cell-based; conditions: A549, 48 h
# MCF7 = experiment: Cytotoxicity against human MCF7 cells assessed as inhibition of cell viability for 48 hrs by MTT assay; type: functional, cell-based; conditions: for IC50: MCF7, 48 h
# HeLa = experiment: Cytotoxicity against human HeLa cells assessed as inhibition of cell viability for 48 hrs by MTT assay; type: functional, cell-based
Ki (Carbonic anhydrase 2) [nM],Ki (Carbonic anhydrase 1) [nM],Ki (Carbonic anhydrase 9) [nM],Ki (Carbonic anhydrase 12) [nM],SMILES,IC50 (A549) [µM],IC50 (MCF7) [µM],IC50 (HeLa) [µM],Activity (MCF7),Activity (HeLa)
5.7,71.7,27.2,79.4,Cc1cc(-c2ccc(S(N)(=O)=O)s2)ccc1-c1cccc2ncccc12,22,32,31,,
28.7,92.8,483,559,NS(=O)(=O)c1ccc(-c2ccc(-c3cccc4ccccc34)cc2)s1,30,69,24,,
101,670,86.2,386,Cc1cc(-c2cccc(S(N)(=O)=O)c2)ccc1-c1cccc2ccccc12,,,,,
30.5,54.8,75.6,808,Cc1cc(-c2ccc(S(N)(=O)=O)cc2)ccc1-c1cccc2ccccc12,,,,,
34.8,67.5,29.3,212,Cc1cc(-c2ccc(S(N)(=O)=O)s2)ccc1-c1cccc2ccccc12,102,> 500,> 500,,
11.3,84.5,38.4,71.8,NS(=O)(=O)c1ccc(-c2ccc(-c3cccc4ncccc34)cc2)s1,,,,,
5.5,35.6,106,41.8,Cc1cc(-c2ccc(S(N)(=O)=O)s2)ccc1-c1ccnc2ccccc12,,,,,
7.3,90.5,29.3,212,Cc1cc(-c2ccc(S(N)(=O)=O)s2)cnc1-c1cccc2ccccc12,,,,,

# The remaining lines, values behind:
SMILES,Ki (Carbonic anhydrase 2) [nM],Ki (Carbonic anhydrase 1) [nM],Ki (Carbonic anhydrase 9) [nM],Ki (Carbonic anhydrase 12) [nM],IC50 (A549) [µM],IC50 (MCF7) [µM],IC50 (HeLa) [µM],Activity (MCF7),Activity (HeLa)
Cc1cc(-c2cccc(S(N)(=O)=O)c2)cnc1-c1ccnc2ccccc12,88.6,479,215,450,,,,,
Cc1cc(-c2ccc(S(N)(=O)=O)cc2)cnc1-c1ccnc2ccccc12,4.9,48.9,167,247,,,,,
NS(=O)(=O)c1ccc(-c2ccc(-c3cccc4ccccc34)cc2)cc1,58.2,113,84.3,501,,,,,
Cc1cc(-c2ccc(S(N)(=O)=O)s2)cnc1-c1cccc2ncccc12,3.2,59,29.8,86.3,68,71,51,,
Cc1cc(-c2ccc(S(N)(=O)=O)s2)cnc1-c1ccnc2ccccc12,3.7,50,68.1,157,43.5,16.5,105,,
NS(=O)(=O)c1ccc(-c2ccc(-c3ccnc4ccccc34)cn2)s1,2.1,72.5,61.4,51,> 500,,,inactive,inactive
NS(=O)(=O)c1cccc(-c2ccc(-c3cccc4ccccc34)cc2)c1,144,698,331,558,,,,,
NS(=O)(=O)c1ccc(-c2ccc(-c3cccc4ncccc34)cc2)cc1,33.3,85.8,72.1,552,,,,,
